Source: PubChem BioAssay AID330 (DTP/NCI, 2004)
Values joined by “and” are separate entries in the source; they are usually repeats but may differ in a detail not shown here. Identical values can stand only once. Toxic doses and inconclusive results are not listed.

Tested on: P388 leukemia ip, CD2F1 mice, survival T/C
Experiment: NCI In Vivo Anticancer Drug Screen. Data for tumor model P388 Leukemia (intraperitoneal) in CD2F1 (CDF1) mice
Conditions: endpoint: median survival time, higher = longer survival
Summary of the method: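 Mice carrying the transplanted tumor received test compound or vehicle. Survival was recorded in each group, and the value is the treated-group measurement divided by that of the vehicle-treated control group.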

[1] = dose: 50.0 mg/kg/injection, schedule: Q01DX009 (ip), vehicle: saline with Tween-80
[2] = dose: 100.0 mg/kg/injection, schedule: Q01DX009 (ip), vehicle: saline with Tween-80
[3] = dose: 200.0 mg/kg/injection, schedule: Q01DX009 (ip), vehicle: saline with Tween-80
[4] = dose: 50.0 mg/kg/injection, schedule: Q01DX009 (ip), vehicle: saline
[5] = dose: 100.0 mg/kg/injection, schedule: Q01DX009 (ip), vehicle: saline
[6] = dose: 60.0 mg/kg/injection, schedule: Q01DX005 (ip), vehicle: saline with Tween-80
[7] = dose: 120.0 mg/kg/injection, schedule: Q01DX005 (ip), vehicle: saline with Tween-80
[8] = dose: 240.0 mg/kg/injection, schedule: Q01DX005 (ip), vehicle: saline with Tween-80
[9] = dose: 12.5 mg/kg/injection, schedule: Q01DX005 (ip), vehicle: Klucel (hydroxypropylcellulose) (HPC)
[10] = dose: 25.0 mg/kg/injection, schedule: Q01DX005 (ip), vehicle: Klucel (hydroxypropylcellulose) (HPC)
[11] = dose: 50.0 mg/kg/injection, schedule: Q01DX005 (ip), vehicle: Klucel (hydroxypropylcellulose) (HPC)
[12] = dose: 100.0 mg/kg/injection, schedule: Q01DX005 (ip), vehicle: Klucel (hydroxypropylcellulose) (HPC)
[13] = dose: 200.0 mg/kg/injection, schedule: Q01DX005 (ip), vehicle: Klucel (hydroxypropylcellulose) (HPC)

O=C(Nc1ccc(Cc2ccc(NC(=O)Nc3cccnc3)cc2)cc1)Nc1cccnc1
T/C (dose: 50.0 mg/kg/injection, schedule: Q01DX009 (ip), vehicle: Klucel (hydroxypropylcellulose) (HPC)): 101 % of control
T/C (dose: 100.0 mg/kg/injection, schedule: Q01DX009 (ip), vehicle: Klucel (hydroxypropylcellulose) (HPC)): 94 % of control
T/C (dose: 200.0 mg/kg/injection, schedule: Q01DX009 (ip), vehicle: Klucel (hydroxypropylcellulose) (HPC)): 88 % of control

O=C1/C(=C/c2cccc3ccccc23)SC(=S)N1Cc1ccco1
T/C [1]: 92 % of control
T/C [2]: 92 % of control
T/C [3]: 99 % of control

CC/C=C\C/C=C\CC1(O)C=C(Cl)C(=O)C1C(OC(C)=O)C(OC(C)=O)C(CCCC(=O)OC)OC(C)=O (stereo unspecified)
T/C (dose: 2.25 mg/kg/injection, schedule: Q01DX005 (ip), vehicle: Klucel (hydroxypropylcellulose) (HPC)): 103 % of control
T/C (dose: 4.5 mg/kg/injection, schedule: Q01DX005 (ip), vehicle: Klucel (hydroxypropylcellulose) (HPC)): 94 % of control
T/C (dose: 9.0 mg/kg/injection, schedule: Q01DX005 (ip), vehicle: Klucel (hydroxypropylcellulose) (HPC)): 100 % of control
T/C (dose: 18.0 mg/kg/injection, schedule: Q01DX005 (ip), vehicle: Klucel (hydroxypropylcellulose) (HPC)): 95 % of control
T/C (dose: 36.0 mg/kg/injection, schedule: Q01DX005 (ip), vehicle: Klucel (hydroxypropylcellulose) (HPC)): 95 % of control

CCOC(=O)c1ccc2c(c1)Nc1cc3ccccc3cc1N2
T/C (dose: 25.0 mg/kg/injection, schedule: Q01DX009 (ip), vehicle: saline + alcohol): 104 % of control
T/C (dose: 50.0 mg/kg/injection, schedule: Q01DX009 (ip), vehicle: saline + alcohol): 88 % of control
T/C (dose: 100.0 mg/kg/injection, schedule: Q01DX009 (ip), vehicle: saline + alcohol): 101 % of control

CC(C)N1CCOCC1
T/C (dose: 25.0 mg/kg/injection, schedule: Q01DX009 (ip), vehicle: saline): 110 % of control
T/C [4]: 105 % of control and 100 % of control
T/C [5]: 105 % of control and 113 % of control

O=C(NCC1CC1)c1ccccc1NC(=O)c1cc2ccccc2oc1=O
T/C [6]: 100 % of control
T/C [7]: 100 % of control
T/C [8]: 108 % of control

Cn1cccc1/C=N/N1CC(=O)N(c2ccc(Cl)cc2)CC1=O
T/C (dose: 50.0 mg/kg/injection, schedule: Q01DX005 (ip), vehicle: saline with Tween-80): 110 % of control
T/C (dose: 100.0 mg/kg/injection, schedule: Q01DX005 (ip), vehicle: saline with Tween-80): 106 % of control
T/C (dose: 200.0 mg/kg/injection, schedule: Q01DX005 (ip), vehicle: saline with Tween-80): 88 % of control

Cc1cc[n+](CCC(N)=O)cc1
T/C (dose: 100.0 mg/kg/injection, schedule: Q04DX003 (ip), vehicle: saline): 100 % of control
T/C (dose: 200.0 mg/kg/injection, schedule: Q04DX003 (ip), vehicle: saline): 100 % of control

CC(Cc1ccc(O)cc1)NCC(O)c1cc(O)cc(O)c1 (stereo unspecified)
T/C [4]: 96 % of control
T/C (dose: 66.0 mg/kg/injection, schedule: Q01DX009 (ip), vehicle: saline): 99 % of control and 87 % of control
T/C [5]: 99 % of control and 100 % of control
T/C (dose: 150.0 mg/kg/injection, schedule: Q01DX009 (ip), vehicle: saline): 91 % of control and 93 % of control
T/C (dose: 200.0 mg/kg/injection, schedule: Q01DX009 (ip), vehicle: saline): 112 % of control

C(=C\c1cccs1)/c1csnn1
T/C [6]: 101 % of control
T/C [7]: 102 % of control
T/C [8]: 101 % of control

O=C1CSC(c2ccco2)N1CCN1C(=O)CSC1c1ccco1 (stereo unspecified)
T/C (dose: 100.0 mg/kg/injection, schedule: Q04DX002 (ip), vehicle: saline with Tween-80): 100 % of control
T/C (dose: 200.0 mg/kg/injection, schedule: Q04DX002 (ip), vehicle: saline with Tween-80): 98 % of control
T/C (dose: 400.0 mg/kg/injection, schedule: Q04DX002 (ip), vehicle: saline with Tween-80): 91 % of control

CCN(CC)C(=S)Sc1nsc(SC(=S)N(CC)CC)c1C#N
T/C [1]: 94 % of control
T/C [2]: 94 % of control
T/C [3]: 94 % of control

CO/N=C1\N=C(C)C(=N)N1c1ccccc1
T/C [6]: 104 % of control
T/C [7]: 99 % of control
T/C [8]: 107 % of control

O=C(O)c1ccc2c(c1Sc1ccc(Cl)cc1)C(=O)c1ccccc1C2=O
T/C (dose: 60.0 mg/kg/injection, schedule: Q01DX005 (ip), vehicle: Klucel (hydroxypropylcellulose) (HPC)): 100 % of control
T/C (dose: 120.0 mg/kg/injection, schedule: Q01DX005 (ip), vehicle: Klucel (hydroxypropylcellulose) (HPC)): 90 % of control
T/C (dose: 240.0 mg/kg/injection, schedule: Q01DX005 (ip), vehicle: Klucel (hydroxypropylcellulose) (HPC)): 99 % of control

BrCCN(CCBr)c1ccc2c3c(cccc13)-c1ccccc1-2
T/C (dose: 4.0 mg/kg/injection, schedule: Q01DX009 (ip), vehicle: saline with Tween-80): 160 % of control and 163 % of control
T/C (dose: 6.0 mg/kg/injection, schedule: Q01DX009 (ip), vehicle: saline with Tween-80): 178 % of control
T/C (dose: 6.25 mg/kg/injection, schedule: Q01DX009 (ip), vehicle: saline with Tween-80): 154 % of control
T/C (dose: 9.0 mg/kg/injection, schedule: Q01DX009 (ip), vehicle: saline with Tween-80): 117 % of control
T/C (dose: 100.0 mg/kg/injection, schedule: Q04DX003 (ip), vehicle: saline with Tween-80): 104 % of control
T/C (dose: 200.0 mg/kg/injection, schedule: Q04DX003 (ip), vehicle: saline with Tween-80): 104 % of control

C/C(=N\O)C1CCN(Cc2ccccc2)CC1
T/C [9]: 105 % of control
T/C [10]: 110 % of control
T/C [11]: 100 % of control and 105 % of control

Nc1ncnc2c1ncn2C1SC(CO)C(O)C1O (stereo unspecified)
T/C [9]: 92 % of control
T/C [10]: 100 % of control and 92 % of control
T/C [11]: 99 % of control and 96 % of control
T/C [12]: 104 % of control and 100 % of control
T/C [13]: 101 % of control and 92 % of control

CC(SC(C)(C)C)C(=O)SC(C)(C)C (stereo unspecified)
T/C (dose: 100.0 mg/kg/injection, schedule: Q04DX003 (ip), vehicle: Klucel (hydroxypropylcellulose) (HPC)): 102 % of control
T/C (dose: 200.0 mg/kg/injection, schedule: Q04DX003 (ip), vehicle: Klucel (hydroxypropylcellulose) (HPC)): 103 % of control
T/C (dose: 400.0 mg/kg/injection, schedule: Q04DX003 (ip), vehicle: Klucel (hydroxypropylcellulose) (HPC)): 105 % of control

CC(=O)c1c(Br)c2c3ccccc3c3ccccc3n2c1C
T/C [6]: 107 % of control
T/C [7]: 106 % of control
T/C [8]: 92 % of control

CC(C)NC(=O)OCc1c(COC(=O)NC(C)C)c2n(c1Br)CCC2
T/C (dose: 25.0 mg/kg/injection, schedule: Q01DX005 (ip), vehicle: saline with Tween-80): 186 % of control

COc1ccc(CC2C(=O)OC(C)C(NC(=O)C(CC(C)C)N(C)C(=O)C3CCCN3C(=O)C(C)O)C(=O)NC(C(C)C)C(O)CC(=O)OC(C(C)C)C(=O)C(C)C(=O)NC(CC(C)C)C(=O)N3CCCC3C(=O)N2C)cc1 (stereo unspecified)
T/C (dose: 37.5 micrograms/kg/injection, schedule: Q01DX005 (ip), vehicle: distilled water + alcohol): 122 % of control
T/C (dose: 250.0 micrograms/kg/injection, schedule: Q01DX005 (ip), vehicle: distilled water + alcohol): 160 % of control
T/C (dose: 500.0 micrograms/kg/injection, schedule: Q01DX005 (ip), vehicle: distilled water + alcohol): 166 % of control

CCN(CCOC(=O)Nc1ccc(F)cc1)c1ccccc1
T/C [6]: 111 % of control
T/C [7]: 96 % of control
T/C [8]: 94 % of control

Cc1ccc(S(=O)(=O)N/N=C/c2ccc(O)c(Cl)c2)cc1
T/C (dose: 12.5 mg/kg/injection, schedule: Q01DX005 (ip), vehicle: distilled water + Tween-80): 102 % of control
T/C (dose: 25.0 mg/kg/injection, schedule: Q01DX005 (ip), vehicle: distilled water + Tween-80): 102 % of control
T/C (dose: 50.0 mg/kg/injection, schedule: Q01DX005 (ip), vehicle: distilled water + Tween-80): 98 % of control
T/C (dose: 100.0 mg/kg/injection, schedule: Q01DX005 (ip), vehicle: distilled water + Tween-80): 100 % of control
T/C (dose: 200.0 mg/kg/injection, schedule: Q01DX005 (ip), vehicle: distilled water + Tween-80): 99 % of control

COc1ccc(S(=O)(=O)c2cnc(N3CCCCC3)nc2N)cc1
T/C (dose: 100.0 mg/kg/injection, schedule: Q04DX002 (ip), vehicle: saline): 100 % of control
T/C (dose: 200.0 mg/kg/injection, schedule: Q04DX002 (ip), vehicle: saline): 98 % of control
T/C (dose: 400.0 mg/kg/injection, schedule: Q04DX002 (ip), vehicle: saline): 97 % of control

CC(=NCc1ccccc1)c1c(C)cc(=O)n(-c2ccccc2)c1O
T/C [6]: 96 % of control
T/C [7]: 97 % of control
T/C [8]: 89 % of control

CO/N=C/c1ccccc1C(=O)O
T/C [11]: 100 % of control
T/C [12]: 95 % of control
T/C [13]: 99 % of control
